Data set [1] in a line: Antibiotic blood levels in mice following intramuscular administration (paper disc-agar diffusion, Escherichia coli NIHJ as assay organism). The data set is classed as in vivo. Particulars: mouse, im, I.M., 20 mg./kg.; for half-life: read-out: Blood level, Half-life; for Cmax: read-out: Blood level, Peak Concentration. On the procedure: Antibiotic blood levels were determined in mice following intramuscular administration of the test compounds at 20 mg./kg. The blood samples were collected from the orbital sinuses into heparinized capillary tubes at 15, 30, 60 and 120 minutes after administration. The antibiotic concentration was determined by the paper disc-agar diffusion method using Escherichia coli NIHJ as the assay organism.
A general note: A growth-free zone around the sample is the usual read-out of agar diffusion tests.

The subject of data set [2] is Pseudomonas aeruginosa A9843. The experiment in a line: In vivo efficacy, experimental infection in mice, intramuscular treatment, Pseudomonas aeruginosa A9843. Also noted: species or system Pseudomonas aeruginosa (infected mice). Particulars: A9843, im, 120 h, I.M., 100×LD50 challenge i.p., 5 days, read-out: PD50 Pseudomonas aeruginosa A9843. On the procedure:
(§1) The in vivo efficacy was evaluated by intramuscular treatment against three kinds of experimental infection in mice.
(§2) The in vivo tests were carried out using the following three pathogenic organisms:
Pseudomonas aeruginosa A9843
(§3) Mice were challenged intraperitoneally with approximately a 100×LD50 dose of the pathogens in a 5% mucin suspension. The mice were treated with test compound by I.M. route immediately after the bacterial challenge.

Data set [3] relates to Ent. cloacae (3), Pr. vulgaris (1), Pr. morganii (1), S. marcescen (1). Kind of data set: In vitro MIC, serial two-fold agar dilution, primary evaluation Gn-II (Ent. cloacae, Pr. vulgaris, Pr. morganii, S. marcescens). The data set is classed as cell-based. To be noted: CBPC = 100%; geometric mean of MICs; Mueller-Hinton agar. The method, then:
(§4) Minimun inhibitory concentrations (MIC) were determined by the serial two-fold agar dilution method using Steers' apparatus on Mueller-Hinton agar plate against 31 test organisms for the primary screening and also against 64 strains of Pseudomonas aeruginosa for the secondary evaluation. The results are shown in Table 1 in terms of relative activity with respect to the standard compound CBPC (carbenicillin) which was set at 100%. In each group the calculation was based on the geometric mean of the observed MICs.
GnII = Ent. cloacae (3), Pr. vulgaris (1), Pr. morganii (1), S. marcescen
On the technique in general: In agar dilution, organisms are placed on agar that contains the substance at set levels.

For the next data set, the system named is Ps. aeruginosa. Kind of data set: In vitro MIC, serial two-fold agar dilution, primary evaluation Ps (6 strains). The data set is classed as cell-based. To be noted: CBPC = 100%; geometric mean of MICs; Mueller-Hinton agar. On the procedure: as §4
Ps. = Ps. aeruginosa (6).

The test system of another data set is S. aureus. Kind of data set: In vitro MIC, serial two-fold agar dilution, primary evaluation Gp (S. aureus, 6 strains). The data set is classed as cell-based. Particulars: CBPC = 100%; geometric mean of MICs; Mueller-Hinton agar. On the procedure: as §4
*GP = S. aureus (6 strains);

The test system of data set [4] is E. coli (9), Klebsiella sp. (2), Pr. mirabilis (1), Sal. enteritidis (1). Kind of data set: In vitro MIC, serial two-fold agar dilution, primary evaluation Gn-I (E. coli, Klebsiella sp., Pr. mirabilis, Sal. enteritidis). The data set is classed as cell-based. Particulars: CBPC = 100%; geometric mean of MICs; Mueller-Hinton agar. The method, then: as §4
GnI = E. coli (9), Klebsiella sp. (2), Pr. mirabilis (1), Sal.

The test system of another data set is Escherichia coli Juhl. Kind of data set: In vivo efficacy, experimental infection in mice, intramuscular treatment, Escherichia coli Juhl. Also on record: species or system Escherichia coli (infected mice). Particulars: im, 120 h, I.M., 100×LD50 challenge i.p., 5 days, read-out: PD50 Escherichia coli Juhl. On the procedure:
as §1, §2, §3

The next data set deals with Pseudomonas aeruginosa. Kind of data set: In vitro MIC, serial two-fold agar dilution, secondary evaluation against Pseudomonas aeruginosa strains. The data set is classed as cell-based. To be noted: CBPC = 100%; geometric mean of MICs; 61-64 strains. On the procedure:
as §4

One may read the half-life as the time needed for the level to fall by half in the phase considered.

For the molecule `O=C(O)CSc1cc[n+](CC2=C(C(=O)[O-])N3C(=O)C(NC(=O)[C@H](NC(=O)c4cnc5cccnc5c4O)c4ccc(O)c(Cl)c4)C3SC2)cc1` (stereo partly drawn) [BB-S621, 7-[D-α-(4-Hydroxy-1,5-naphthyridine-3-carboxamido)-α-(3-chloro-4-hydroxyphenyl)acetamido]-3-[4-(carboxymethylthio)-pyridinium]methyl-3-cephem-4-carboxylate], the half-life in data set [1] came out at 54 min. The Cmax in data set [1] was 10000 ng/mL. Also, the ED50 in data set [2] turned out to be 4.6 mg/kg; in the data set with Escherichia coli Juhl, 2.4 mg/kg. In data set [3], the “In vitro relative activity, primary evaluation Gn-II (6)” value worked out at 18%. Besides, in the data set on Ps. aeruginosa, the “In vitro relative activity, primary evaluation Ps (6)” value is 800%. Further, the “In vitro relative activity, primary evaluation Gp (6)” value in the data set with S. aureus was 20%. Further, the “In vitro relative activity, primary evaluation Gn-I (13)” value (“In vitro relative activity … (13)” for short) in data set [4] is 121%. Moreover, in the data set on Pseudomonas aeruginosa, the “In vitro relative activity, secondary, Pseudomonas aeruginosa (61-64)” value (“In vitro relative activity, secondary” below) was determined as 1400%.
`O=C(O)CSc1ccc[n+](CC2=C(C(=O)[O-])N3C(=O)C(NC(=O)[C@H](NC(=O)c4cnc5cccnc5c4O)c4ccc(O)c(Cl)c4)C3SC2)c1` (stereo partly drawn) [BB-S637, 7-[D-α-(4-Hydroxy-1,5-naphthyridine-3-carboxamido)-α-(3-chloro-4-hydroxyphenyl)acetamido]-3-(3-carboxymethylthiopyridinium)methyl-3-cephem-4-carboxylate]: in data set [3], the “In vitro relative activity, primary evaluation Gn-II (6)” value turned out to be 25%. The “In vitro relative activity, primary evaluation Ps (6)” value in the data set on Ps. aeruginosa is reported as 3530%. In addition, in the data set with S. aureus, the “In vitro relative activity, primary evaluation Gp (6)” value came to 71%. The “In vitro relative activity … (13)” value in data set [4] came to 113%.
On the same counts, the results for `O=C(O)CSc1cc[n+](CC2=C(C(=O)[O-])N3C(=O)C(NC(=O)[C@H](NC(=O)c4cnc5cccnc5c4O)c4ccc(O)c(O)c4)C3SC2)cc1` (stereo partly drawn) [BB-S639, 7-[D-α-(4-Hydroxy-1,5-naphthyridine-3-carboxamido)-α-(3,4-dihydroxyphenyl)acetamido]-3-(4-carboxymethylthiopyridinium)-methyl-3-cephem-4-carboxylate] are 35%, 4310%, 20% and 242%.
As for `O=C([O-])C1=C(C[n+]2cccc(CCS(=O)(=O)O)c2)CSC2C(NC(=O)[C@H](NC(=O)c3cnc4cccnc4c3O)c3ccc(O)cc3)C(=O)N12` (stereo partly drawn) [BB-S620, 7-[D-α-(4-Hydroxy-1,5-naphthyridine-3-carboxamido)-α-(4-hydroxyphenyl)acetamido]-3-[3-(2-sulfoethyl)pyridinium]methyl 3-cephem-4-carboxylate], the half-life in data set [1] came out at 40 min. Besides, the Cmax in data set [1] worked out at 12500 ng/mL. Moreover, the ED50 in data set [2] is 6.25 mg/kg; in the data set on Escherichia coli Juhl, 3.2 mg/kg. The “In vitro relative activity, primary evaluation Gn-II (6)” value in data set [3] is 14%. In addition, in the data set with Ps. aeruginosa, the “In vitro relative activity, primary evaluation Ps (6)” value came to 800%. Further, the “In vitro relative activity, primary evaluation Gp (6)” value in the data set on S. aureus is given as 28%. Also, the “In vitro relative activity … (13)” value in data set [4] is reported as 60%. Besides, in the data set on Pseudomonas aeruginosa, the “In vitro relative activity, secondary” value was 1800%.
Turning to `O=C(O)CSc1ccc[n+](CC2=C(C(=O)[O-])N3C(=O)C(NC(=O)[C@H](NC(=O)c4cnc5cccnc5c4O)c4ccc(O)c(O)c4)C3SC2)c1` (stereo partly drawn) [BB-S638, 7-[D-α-(4-Hydroxy-1,5-naphthyridine-3-carboxamido)-α-(3,4-dihydroxyphenyl)acetamido]-3-(3-carboxymethylthiopyridinium)-methyl-3-cephem-4-carboxylate], in data set [3], the “In vitro relative activity, primary evaluation Gn-II (6)” value stood at 8%. For the same molecule, the “In vitro relative activity, primary evaluation Ps (6)” value in the data set on Ps. aeruginosa was determined as 2380%. The “In vitro relative activity, primary evaluation Gp (6)” value in the data set on S. aureus is 8%. For the same molecule, the “In vitro relative activity … (13)” value in data set [4] is given as 69%.
In the case of `O=C([O-])C1=C(C[n+]2cccc(S(=O)(=O)O)c2)CSC2C(NC(=O)[C@H](NC(=O)c3cnc4cccnc4c3O)c3ccc(O)c(Cl)c3)C(=O)N12` (stereo partly drawn) [BB-S601, 7-[D-α-(4-Hydroxy-1,5-naphthyridine-3-carboxamido)-α-(3-chloro-4-hydroxyphenyl)acetamido]-3-(3-sulfopyridinium)methyl-3-cephem-4-carboxylate], in data set [1], the half-life is 70 min and the Cmax was 10000 ng/mL. In addition, the ED50 in data set [2] came to 4.4 mg/kg. For the same molecule, the “In vitro relative activity, primary evaluation Gn-II (6)” value in data set [3] was found to be 25%. In the data set with Ps. aeruginosa, the “In vitro relative activity, primary evaluation Ps (6)” value is recorded as 3200%. In addition, in the data set with S. aureus, the “In vitro relative activity, primary evaluation Gp (6)” value is reported as 79%. Besides, in data set [4], the “In vitro relative activity … (13)” value is given as 107%. The “In vitro relative activity, secondary” value with Pseudomonas aeruginosa worked out at 2490%.
In the case of `O=C(O)C=Cc1ccc[n+](CC2=C(C(=O)[O-])N3C(=O)C(NC(=O)[C@H](NC(=O)c4cnc5cccnc5c4O)c4ccsc4)C3SC2)c1` (stereo partly drawn) [BB-S626, 7-[D-α-(4-Hydroxy-1,5-naphthyridine-3-carboxamido)-α-(3-thienyl)acetamido]-3-[3-(2-carboxyvinyl)pyridinium]methyl-3-cephem-4-carboxylate], in data set [1], the half-life came out at 42 min and the Cmax worked out at 8800 ng/mL. Further, the ED50 in data set [2] is 30 mg/kg. Further, the “In vitro relative activity, primary evaluation Gn-II (6)” value in data set [3] turned out to be 11%. Further, in the data set on Ps. aeruginosa, the “In vitro relative activity, primary evaluation Ps (6)” value amounted to 231%. In the data set with S. aureus, the “In vitro relative activity, primary evaluation Gp (6)” value was determined as 45%. Moreover, the “In vitro relative activity … (13)” value in data set [4] is reported as 41%. The “In vitro relative activity, secondary” value in the data set on Pseudomonas aeruginosa worked out at 460%.
For the molecule `O=C(O)CSc1ccc[n+](CC2=C(C(=O)[O-])N3C(=O)C(NC(=O)[C@H](NC(=O)c4cnc5cccnc5c4O)c4ccc(O)cc4)C3SC2)c1` (stereo partly drawn) [BB-S636, 7-[D-α-(4-Hydroxy-1,5-naphthyridine-3-carboxamido)-α-(4-hydroxyphenyl)acetamido]-3-(3-carboxymethylthiopyridinium)-methyl-3-cephem-4-carboxylate], the “In vitro relative activity, primary evaluation Gn-II (6)” value in data set [3] came out at 50%. In addition, in the data set on Ps. aeruginosa, the “In vitro relative activity, primary evaluation Ps (6)” value amounted to 7070%. Besides, the “In vitro relative activity, primary evaluation Gp (6)” value with S. aureus is reported as 71%. Moreover, the “In vitro relative activity … (13)” value in data set [4] is given as 242%.
On to `O=C([O-])C1=C(C[n+]2cccc(S(=O)(=O)O)c2)CSC2C(NC(=O)[C@H](NC(=O)c3cnc4cccnc4c3O)c3ccsc3)C(=O)N12` (stereo partly drawn) [BB-S625, 7-[D-α-(4-Hydroxy-1.5-naphthyridine-3-carboxamido)-α-(3-thienyl)acetamido]-3-(3-sulfopyridinium)methyl-3-cephem-4-carboxylate], for which, in data set [1], the half-life was 54 min and the Cmax was found to be 10000 ng/mL. In addition, the ED50 in data set [2] came to 36 mg/kg. In addition, in data set [3], the “In vitro relative activity, primary evaluation Gn-II (6)” value is on record as 7%. Further, the “In vitro relative activity, primary evaluation Ps (6)” value in the data set on Ps. aeruginosa came out at 200%. In addition, in the data set with S. aureus, the “In vitro relative activity, primary evaluation Gp (6)” value is given as 50%. Further, in data set [4], the “In vitro relative activity … (13)” value came out at 32%. Also, the “In vitro relative activity, secondary” value with Pseudomonas aeruginosa came to 400%.
Take `O=C([O-])C1=C(C[n+]2ccc(C(=O)O)c(C(=O)O)c2)CSC2C(NC(=O)[C@H](NC(=O)c3cnc4cccnc4c3O)c3ccc(O)cc3)C(=O)N12` (stereo partly drawn) [BB-S586, 7-[D-α-(4-Hydroxy-1,5-naphthyridine-3-carboxamido)-α-(4-hydroxyphenyl)acetamido]-3-(3,4-dicarboxypyridinium)methyl-3-cephem-4-carboxylate]: the “In vitro relative activity, primary evaluation Gn-II (6)” value in data set [3] was 11%. Also, in the data set with Ps. aeruginosa, the “In vitro relative activity, primary evaluation Ps (6)” value is on record as 362%. Besides, the “In vitro relative activity, primary evaluation Gp (6)” value with S. aureus was 6%. Besides, the “In vitro relative activity … (13)” value in data set [4] was 88%. For the same molecule, the “In vitro relative activity, secondary” value in the data set with Pseudomonas aeruginosa is 351%.
In the case of `O=C([O-])C1=C(C[n+]2cccc(C(=O)O)c2)CSC2C(NC(=O)[C@H](NC(=O)c3cnc4cccnc4c3O)c3ccsc3)C(=O)N12` (stereo partly drawn) [BB-S624, 7-[D-α-(4-Hydroxy-1,5-naphthyridine-3-carboxamido)-α-(3-thienyl)acetamido]-3-(3-carboxypyridinium)methyl-3-cephem-4-carboxylate], in data set [1], the half-life is 50 min and the Cmax was determined as 9500 ng/mL. Besides, the ED50 in data set [2] was found to be 20 mg/kg. Further, in data set [3], the “In vitro relative activity, primary evaluation Gn-II (6)” value was 10%. For the same molecule, in the data set with Ps. aeruginosa, the “In vitro relative activity, primary evaluation Ps (6)” value turned out to be 328%. In the data set on S. aureus, the “In vitro relative activity, primary evaluation Gp (6)” value was 79%. Also, the “In vitro relative activity … (13)” value in data set [4] came out at 47%. For the same molecule, in the data set on Pseudomonas aeruginosa, the “In vitro relative activity, secondary” value amounted to 413%.
